Data on 7 compounds can be found in paper PMC12079163 (Drug Development Research, 2025).

Values joined by “and” are separate entries in the source; they are usually repeats but may differ in a detail not shown here. Identical values can stand only once. Like-named read-outs stand apart in the source and are kept apart here.

The test system of assay [1] is MV4;11 cells. In words: alamarBlue cell metabolism/viability assay, MV4;11. As to conditions: for IC50: at least triplicate, errors are SEMs. It counts as cell-based, human. The text has this:
(§1) As described previously, MOLM14 and MV4;11 cell lines (both human AML cell lines harboring both mixed‐lineage‐leukemia (KMT2A) rearrangement and FLT3‐ITD mutations) were obtained from DSMZ (Branschweig, DEU) and ATCC (Manassas, VA), respectively (Goodis et al. [2024]; Moses et al. [2021]); MV4;11 BCL‐2 over‐expressing (OE) cells were generated via lentiviral transduction as described previously (Empty Vector AddGene #227688; BLC‐2 OE AddGene #227690) (Goodis et al. [2024]).
(§2) Cell lines were cultured in RPMI 1640 media (Cellgro, # MDT‐10‐040‐CV) containing 10% fetal bovine serum (Gemini BioProducts #100‐106) and passaged twice per week to maintain cultures in log‐phase‐growth. Upon receipt or derivation, cell lines were expanded and multiple aliquots cryopreserved in DMSO‐containing medium in the vapor phase of liquid nitrogen. Cells were genetically authenticated and confirmed to be mycoplasma‐negative before cryopreservation. Cells from a given cryopreserved aliquot were cultured for no more than 3–4 months.
(§3) AnnV/7AAD assays were assessed by flow cytometry and analyzed using FlowLogic software v8.7.
(§4) Our dual inhibitors were next evaluated in an alamarBlue^TM cell metabolism/viability assay against 3 human AML cell lines: MOLM14, MV4;11, and MV4;11 BCL‐2 overexpressing (OE). […] However, pleasingly, several of our top compounds based on the cell‐free assay results also performed well in the AML cell‐based metabolism/viability assays.
Background: Alamar Blue is a resazurin reagent that responds to reducing activity.

The target of another assay is T1, HDAC6 (Homo sapiens, UniProt Q9UBN7).
T1 sequence (Q9UBN7 1-1215): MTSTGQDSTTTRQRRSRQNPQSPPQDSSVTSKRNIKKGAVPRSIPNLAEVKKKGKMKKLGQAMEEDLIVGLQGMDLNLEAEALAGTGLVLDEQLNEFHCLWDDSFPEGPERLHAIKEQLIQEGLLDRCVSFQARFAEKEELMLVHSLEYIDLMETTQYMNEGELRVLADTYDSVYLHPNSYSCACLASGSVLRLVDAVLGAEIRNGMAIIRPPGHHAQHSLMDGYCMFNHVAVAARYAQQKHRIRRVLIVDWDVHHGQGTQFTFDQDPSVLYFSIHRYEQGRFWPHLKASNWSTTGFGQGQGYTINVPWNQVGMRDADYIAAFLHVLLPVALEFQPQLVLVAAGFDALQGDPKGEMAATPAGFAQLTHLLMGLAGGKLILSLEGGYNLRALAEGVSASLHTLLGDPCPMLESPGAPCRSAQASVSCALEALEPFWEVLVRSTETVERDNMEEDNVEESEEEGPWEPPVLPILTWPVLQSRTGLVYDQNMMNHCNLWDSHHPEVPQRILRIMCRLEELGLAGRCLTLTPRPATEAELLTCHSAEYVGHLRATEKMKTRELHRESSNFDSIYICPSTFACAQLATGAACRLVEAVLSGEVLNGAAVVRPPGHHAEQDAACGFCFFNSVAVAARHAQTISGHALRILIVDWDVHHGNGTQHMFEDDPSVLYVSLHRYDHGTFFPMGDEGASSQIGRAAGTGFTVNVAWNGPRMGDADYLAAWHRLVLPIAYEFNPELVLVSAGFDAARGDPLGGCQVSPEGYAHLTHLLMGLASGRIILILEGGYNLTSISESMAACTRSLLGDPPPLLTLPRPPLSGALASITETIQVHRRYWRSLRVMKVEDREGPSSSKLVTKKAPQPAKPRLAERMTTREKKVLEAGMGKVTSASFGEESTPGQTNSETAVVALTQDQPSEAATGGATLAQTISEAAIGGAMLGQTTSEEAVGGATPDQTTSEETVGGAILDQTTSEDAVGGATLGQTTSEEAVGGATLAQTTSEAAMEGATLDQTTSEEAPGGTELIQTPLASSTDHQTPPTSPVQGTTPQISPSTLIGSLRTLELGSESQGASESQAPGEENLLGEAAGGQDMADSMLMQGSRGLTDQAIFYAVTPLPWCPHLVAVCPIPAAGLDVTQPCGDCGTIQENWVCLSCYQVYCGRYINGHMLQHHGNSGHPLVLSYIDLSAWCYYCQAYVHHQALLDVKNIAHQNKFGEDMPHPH
In words: HDAC6 fluorogenic assay (BPS Bioscience 50076, run by Nanosyn). As to conditions: for selectivity for HDAC6 over HDAC1 (HDAC6/1 selectivity): ratio of IC50 values.

The next assay concerns the target T2, HDAC1 (Homo sapiens, UniProt Q13547).
T2 construct: purchased BPS Bioscience (assay run by Nanosyn) 50061
In words: HDAC1 fluorogenic assay (BPS Bioscience 50061, run by Nanosyn). It counts as biochemical. As to conditions: for IC50: cell‐free fluorogenic assay, duplicate, errors are SEMs.

Assay [2] concerns MV4;11 cells. The assay is described as follows: Annexin V/7AAD apoptosis/death assay by flow cytometry. The class given is cell-based, human. As to conditions: 200 nM; for viability at 0.2 µM: Homo sapiens, 48 h, MV4;11, in Figure 2, read-out: viable cells (AnnV‐/7AAD‐), lower left quadrant. The protocol: as §3
Figure 2 Apoptotic cell death of MV4;11 AML cells. […] As a negative control, an equi‐volume of DMSO‐treated sample was also assessed. Flow cytometric dot plots of 200 nM‐treated MV4;11 cells stained with Annexin‐V and 7AAD depict the gating strategy used to delineate viable cells (AnnV‐/7AAD‐), early apoptotic cells (AnnV+/7AAD‐), and late apoptotic cells (AnnV+/7AAD +).
On the technique in general: Flow cytometry measures light scatter and fluorescence of single cells or particles in a stream.

In a further assay the test system is MOLM14 cells. The assay is described as follows: alamarBlue cell metabolism/viability assay, MOLM14. As to conditions: Homo sapiens. The class given is cell-based.
Source text: as §1, §2, §3, §4

In assay [3] the test system is MV4;11 BCL‐2 over‐expressing (OE) cells. The assay is described as follows: alamarBlue cell metabolism/viability assay, MV4;11 BCL‐2 OE. The class given is cell-based. As to conditions: Homo sapiens.
Source text: as §1, §2, §3, §4

The target in another assay is T3, BCL‐2 (Homo sapiens, UniProt P10415).
T3 construct: purchased BPS Bioscience (assay run by Nanosyn) 50222
T3 sequence (P10415 whole entry): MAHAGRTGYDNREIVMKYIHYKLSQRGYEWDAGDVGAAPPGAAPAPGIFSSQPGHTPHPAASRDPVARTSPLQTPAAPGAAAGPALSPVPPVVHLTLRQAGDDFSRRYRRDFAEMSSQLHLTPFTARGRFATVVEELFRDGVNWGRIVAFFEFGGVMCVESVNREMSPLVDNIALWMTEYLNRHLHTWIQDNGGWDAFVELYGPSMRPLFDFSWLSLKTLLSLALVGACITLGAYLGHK
The assay is described as follows: BCL‐2 TR‐FRET assay (BPS Bioscience 50222, run by Nanosyn). It counts as binding. As to conditions: cell‐free TR‐FRET assay, duplicate, errors are SEMs.

Setting [4] is: Homo sapiens, MV4-11, alamarBlue.
[5] abbreviates: MOLM-14, at least triplicate, errors are SEMs, read-out: IC50 MOLM‐14.
Where [6] appears, read: MV4-11, alamarBlue, at least triplicate, errors are SEMs, read-out: IC50 MV4;11 BCL‐2 OE.

T2 sequence (Q13547 whole entry): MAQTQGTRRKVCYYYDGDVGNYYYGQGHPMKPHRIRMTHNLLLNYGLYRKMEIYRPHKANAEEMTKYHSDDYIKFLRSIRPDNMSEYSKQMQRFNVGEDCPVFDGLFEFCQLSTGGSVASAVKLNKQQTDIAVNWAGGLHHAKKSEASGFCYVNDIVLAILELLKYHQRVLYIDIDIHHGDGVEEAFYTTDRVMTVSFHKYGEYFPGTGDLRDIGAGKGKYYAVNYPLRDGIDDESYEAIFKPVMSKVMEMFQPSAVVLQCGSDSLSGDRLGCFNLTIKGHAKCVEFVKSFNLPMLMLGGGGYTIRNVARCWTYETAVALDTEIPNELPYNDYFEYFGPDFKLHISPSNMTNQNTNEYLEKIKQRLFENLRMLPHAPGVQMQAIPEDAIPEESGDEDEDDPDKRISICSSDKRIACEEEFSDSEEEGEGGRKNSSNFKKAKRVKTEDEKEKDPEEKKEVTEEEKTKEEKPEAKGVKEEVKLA

The term IC50 denotes the midpoint of a concentration-inhibition curve. For `CC1(C)CCC(CN2CCN(c3ccc(C(=O)NS(=O)(=O)c4ccc(NCCNC(=O)c5ccc(/C=C/C(=O)NO)cc5)c([N+](=O)[O-])c4)c(Oc4cnc5[nH]ccc5c4)c3)CC2)=C(c2ccc(Cl)cc2)C1` [SF‐8‐062, (E)‐2‐((1H‐pyrrolo[2,3‐b]pyridin‐5‐yl)oxy)‐4‐(4‐((4′‐chloro‐5,5‐dimethyl‐3,4,5,6‐tetrahydro‐[1,1′‐biphenyl]‐2‐yl)methyl)piperazin‐1‐yl)‐N‐((4‐((2‐(4‐(3‐(hydroxyamino)‐3‐oxoprop‐1‐en‐1‐yl)benzamido)ethyl)amino)‐3‐nitrophenyl)sulfonyl)benzamide], the IC50 in the assay on MV4;11 cells [1] (setting [4]) was more than 10 µM; against HDAC1, 6.14 ± 1.24 µM. The “selectivity for HDAC6 over HDAC1 (HDAC6/1 selectivity)” value (from here on “selectivity for HDAC6 over HDAC1”) on HDAC6 is listed as “about 20 fold”.
For the compound `CC1(C)CCC(CN2CCN(c3ccc(C(=O)NS(=O)(=O)c4ccc(NCC5CCOCC5)c([N+](=O)[O-])c4)c(Oc4cnc5[nH]ccc5c4)c3)CC2)=C(c2ccc(Cl)cc2)C1` [Venetoclax, venetoclax, reference compound], the IC50 in the assay with MV4;11 cells [1] (setting [4]) is 0.082 µM; in the assay with MV4;11 cells [1] (alamarBlue), 0.0828 ± 0.0167 µM; with MOLM14 cells (setting [5]) it was 1.72 ± 0.059 µM; in the assay with MOLM14 cells (MOLM-14, read-out: IC50 MOLM14 cells) it was 1.7 µM; in assay [3] (setting [6]), 1.02 ± 0.177 µM; in assay [3] (MV4-11, alamarBlue, read-out: IC50 MV4;11 OE BCL‐2 cell line) it was 1 µM. The IC50 against HDAC6 and on HDAC1 was more than 30 µM each time. Moreover, the “decrease in % AnnV‐/7AAD‐ (viable) cells” value in the assay with MV4;11 cells [2] (MV4;11) is reported as ~ 50%. The viability at 0.2 µM in the assay on MV4;11 cells [2] was found to be 49.4%.
For the compound `CC1(C)CCC(CN2CCN(c3ccc(C(=O)NS(=O)(=O)c4ccc(NCC5CCN(c6ccc(C(=O)NO)cc6)CC5)c([N+](=O)[O-])c4)c(Oc4cnc5[nH]ccc5c4)c3)CC2)=C(c2ccc(Cl)cc2)C1` [AMC‐4‐154, 2‐((1H‐pyrrolo[2,3‐b]pyridin‐5‐yl)oxy)‐4‐(4‐((4′‐chloro‐5,5‐dimethyl‐3,4,5,6‐tetrahydro‐[1,1′‐biphenyl]‐2‐yl)methyl)piperazin‐1‐yl)‐N‐((4‐(((1‐(4‐(hydroxycarbamoyl)phenyl)piperidin‐4‐yl)methyl)amino)‐3‐nitrophenyl)sulfonyl)benzamide], the IC50 is 0.0662 ± 0.0136 µM in the assay on MV4;11 cells [1] (setting [4]); 0.000554 ± 4.5e-05 µM at BCL‐2; more than 10 µM in the assay on MOLM14 cells (setting [5]); 0.631 ± 0.05 µM in assay [3] (setting [6]); 8.71 ± 1.89 µM against HDAC6; more than 30 µM at HDAC1. The “induction of apoptosis compared with venetoclax” value in the assay on MV4;11 cells [2] (MV4;11) is “induced apoptosis similar to venetoclax”. Also, the viability at 0.2 µM in the assay on MV4;11 cells [2] came to 49.2%. At HDAC6, the “selectivity for HDAC6 over HDAC1” value is given as more than 3 fold.
In the case of `CC1(C)CCC(CN2CCN(c3ccc(C(=O)NS(=O)(=O)c4ccc(NCc5ccc(C(=O)NO)cc5)c([N+](=O)[O-])c4)c(Oc4cnc5[nH]ccc5c4)c3)CC2)=C(c2ccc(Cl)cc2)C1` [SF‐8‐038, 2‐((1H‐pyrrolo[2,3‐b]pyridin‐5‐yl)oxy)‐4‐(4‐((4′‐chloro‐5,5‐dimethyl‐3,4,5,6‐tetrahydro‐[1,1′‐biphenyl]‐2‐yl)methyl)piperazin‐1‐yl)‐N‐((4‐((4‐(hydroxycarbamoyl)benzyl)amino)‐3‐nitrophenyl)sulfonyl)benzamide], the IC50 was 0.285 ± 0.081 µM with MV4;11 cells [1] (setting [4]); < 0.001 µM and 0.000617 µM against BCL‐2; more than 10 µM in the assay on MOLM14 cells (setting [5]); 2.45 ± 0.096 µM in assay [3] (setting [6]); 0.368 ± 0.085 µM against HDAC6; more than 30 µM against HDAC1. Moreover, the “fold less active than venetoclax, MV4;11 cell metabolism/viability” value in the assay on MV4;11 cells [1] (IC50 compared with venetoclax) was ~ 3 fold. In addition, the “induction of apoptosis compared with venetoclax” value in the assay on MV4;11 cells [2] (MV4;11) is recorded as “somewhat less potent”. Besides, the viability at 0.2 µM in the assay on MV4;11 cells [2] turned out to be 58.5%. Also, on HDAC6, the “selectivity for HDAC6 over HDAC1” value is more than 80 fold.
For `CC1(C)CCC(CN2CCN(c3ccc(C(=O)NS(=O)(=O)c4ccc(NCc5ccc(C(=O)Nc6ccccc6N)cc5)c([N+](=O)[O-])c4)c(Oc4cnc5[nH]ccc5c4)c3)CC2)=C(c2ccc(Cl)cc2)C1` [BD‐4‐213, 2‐((1H‐pyrrolo[2,3‐b]pyridin‐5‐yl)oxy)‐N‐((4‐((4‐((2‐aminophenyl)carbamoyl)benzyl)amino)‐3‐nitrophenyl)sulfonyl)‐4‐(4‐((4′‐chloro‐5,5‐dimethyl‐3,4,5,6‐tetrahydro‐[1,1′‐biphenyl]‐2‐yl)methyl)piperazin‐1‐yl)benzamide], the IC50 in the assay on MV4;11 cells [1] (setting [4]) is 0.0193 ± 0.0056 µM; against BCL‐2 it was < 0.001 µM and 0.000539 µM; in the assay with MOLM14 cells (setting [5]), 1.63 ± 0.036 µM; in assay [3] (setting [6]), 0.342 ± 0.055 µM; at HDAC6, more than 30 µM; against HDAC1, 2.88 ± 0.57 µM. In addition, the “induction of apoptosis compared with venetoclax” value in the assay on MV4;11 cells [2] (MV4;11) is recorded as “induced apoptosis similar to venetoclax”. Also, the viability at 0.2 µM with MV4;11 cells [2] is 43.9%. Further, the “selectivity for HDAC1 over HDAC6” value on HDAC1 (ratio of IC50 values) is recorded as more than 10 fold.
With `CC1(C)CCC(CN2CCN(c3ccc(C(=O)NS(=O)(=O)c4ccc(NCCNC(=O)c5ccc(C(=O)NO)cc5)c([N+](=O)[O-])c4)c(Oc4cnc5[nH]ccc5c4)c3)CC2)=C(c2ccc(Cl)cc2)C1` [SF‐8‐083, N ^1‐(2‐((4‐(N‐(2‐((1H‐pyrrolo[2,3‐b]pyridin‐5‐yl)oxy)‐4‐(4‐((4′‐chloro‐5,5‐dimethyl‐3,4,5,6‐tetrahydro‐[1,1′‐biphenyl]‐2‐yl)methyl)piperazin‐1‐yl)benzoyl)sulfamoyl)‐2‐nitrophenyl)amino)ethyl)‐N ^4‐hydroxyterephthalamide], the values for the IC50 with MV4;11 cells [1] (setting [4]), against HDAC6 and at HDAC1 were more than 10 µM, 0.418 ± 0.034 µM and 11.6 ± 1.76 µM, respectively. Besides, on HDAC6, the “selectivity for HDAC6 over HDAC1” value was ~ 30 fold.
In the case of `CC1(C)CCC(CN2CCN(c3ccc(C(=O)NS(=O)(=O)c4ccc(NCCNc5ncc(C(=O)NO)cn5)c([N+](=O)[O-])c4)c(Oc4cnc5[nH]ccc5c4)c3)CC2)=C(c2ccc(Cl)cc2)C1` [BD‐4‐208, 2‐((2‐((4‐(N‐(2‐((1H‐pyrrolo[2,3‐b]pyridin‐5‐yl)oxy)‐4‐(4‐((4′‐chloro‐5,5‐dimethyl‐3,4,5,6‐tetrahydro‐[1,1′‐biphenyl]‐2‐yl)methyl)piperazin‐1‐yl)benzoyl)sulfamoyl)‐2‐nitrophenyl)amino)ethyl)amino)‐N‐hydroxypyrimidine‐5‐carboxamide], the IC50 with MV4;11 cells [1] (setting [4]) is more than 10 µM; against HDAC6 it was 0.149 ± 0.02 µM; against HDAC1, 0.463 ± 0.06 µM. The “selectivity for HDAC6 over HDAC1” value on HDAC6 is listed as ~ 3 fold.
